# Measurements from PubChem BioAssay (NCI).
#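 Method: 48-hour compound exposure of cells in 96-well plates, five concentrations, linear interpolation of endpoints. GI50: concentration for 50% inhibition of growth. TGI: total growth inhibition.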
# Key:
# Experiment in all cases: DTP human tumour cell line panel, 48 h
# [1] = test system: CAKI-1 renal
# [2] = test system: UO-31 renal
# [3] = test system: SK-MEL-28 melanoma
# [4] = test system: CCRF-CEM leukemia
# [5] = test system: SR leukemia
# [6] = test system: MDA-MB-231 breast
# [7] = test system: HT29 colon
# [8] = test system: MOLT-4 leukemia
# [9] = test system: SF-268 CNS
# [10] = test system: HCC-2998 colon
# [11] = test system: SN12C renal
# [12] = test system: A498 renal
# [13] = test system: HCT-15 colon
# [14] = test system: BT-549 breast
# [15] = test system: HL-60(TB) leukemia
# [16] = test system: MCF7 breast
# [17] = test system: NCI-H23 lung
# [18] = test system: UACC-62 melanoma
# [19] = test system: UACC-257 melanoma
# [20] = test system: KM12 colon
# [21] = test system: OVCAR-8 ovarian
# [22] = test system: RXF 393 renal
# [23] = test system: OVCAR-4 ovarian
# [24] = test system: TK-10 renal
# [25] = test system: RPMI-8226 leukemia
# [26] = test system: SK-MEL-5 melanoma
# [27] = test system: SK-MEL-2 melanoma
# [28] = test system: NCI/ADR-RES ovarian
# [29] = test system: SF-539 CNS
# [30] = test system: SF-295 CNS
# [31] = test system: IGROV1 ovarian
# [32] = test system: COLO 205 colon
# [33] = test system: MALME-3M melanoma
# [34] = test system: HOP-92 NSCLC
# [35] = test system: A549 NSCLC
# [36] = test system: K-562 leukemia
# [37] = test system: SNB-75 CNS
# [38] = test system: NCI-H522 lung
# [39] = test system: T-47D breast
# [40] = test system: M14 melanoma
# [41] = test system: EKVX NSCLC
# [42] = test system: OVCAR-3 ovarian
# [43] = test system: OVCAR-5 ovarian
# [44] = test system: NCI-H226 lung
# [45] = test system: NCI-H460 lung
# [46] = test system: SK-OV-3 ovarian
# [47] = test system: SNB-19 CNS
# [48] = test system: LOX IMVI melanoma
# [49] = test system: SW-620 colon
# [50] = test system: MDA-MB-435
# [51] = test system: U251 CNS
# [52] = test system: HS 578T breast
# [53] = test system: DU-145 prostate
# [54] = test system: HCT-116 colon
# [55] = test system: PC-3 prostate
# [56] = test system: 786-0 renal
# [57] = test system: HOP-62 NSCLC
# [58] = test system: ACHN renal
smiles,measurement,setting,value
COc1ccc2c(c1)C(=O)c1c-2n(CCCCl)c(=O)c2cc(OC)c(OC)cc12,GI50,[1],6.47 µM
same,TGI,[1],> 24.4 µM
same,GI50,[2],8.4 µM
same,TGI,[2],> 100 µM
same,GI50,[3],> 79.4 µM
same,TGI,[3],> 100 µM
same,GI50,[4],2.02 µM
same,GI50,[5],1.39 µM
same,TGI,[5],6.62 µM
same,GI50,[6],> 100 µM
same,TGI,[6],> 100 µM
same,GI50,[7],> 52.1 µM
same,TGI,[7],> 100 µM
same,GI50,[8],2.55 µM
same,TGI,[8],6.29 µM
same,GI50,[9],8.63 µM
same,TGI,[9],> 100 µM
same,GI50,[10],17.4 µM
same,TGI,[10],> 95.9 µM
same,GI50,[11],6.67 µM
same,TGI,[11],> 100 µM
same,GI50,[12],> 52.5 µM
same,TGI,[12],> 100 µM
same,GI50,[13],> 96.4 µM
same,TGI,[13],> 100 µM
same,GI50,[14],> 100 µM
same,TGI,[14],> 100 µM
same,GI50,[15],4.11 µM
same,TGI,[15],18 µM
same,GI50,[16],6.27 µM
same,TGI,[16],> 100 µM
same,GI50,[17],15.5 µM
same,TGI,[17],> 100 µM
same,GI50,[18],4.6 µM
same,TGI,[18],> 100 µM
same,GI50,[19],45.3 µM
same,TGI,[19],> 100 µM
same,GI50,[20],> 54.2 µM
same,TGI,[20],> 100 µM
same,GI50,[21],53.4 µM
same,TGI,[21],> 100 µM
same,TGI,[22],> 21.1 µM
same,GI50,[23],> 91.7 µM
same,TGI,[23],> 100 µM
same,GI50,[24],> 70.2 µM
same,TGI,[24],> 100 µM
same,GI50,[25],2.14 µM
same,TGI,[25],14.5 µM
same,GI50,[26],9.2 µM
same,TGI,[26],30.1 µM
same,GI50,[27],> 100 µM
same,TGI,[27],> 100 µM
same,GI50,[28],11.6 µM
same,TGI,[28],> 100 µM
same,GI50,[29],6.29 µM
same,TGI,[29],> 57.3 µM
same,GI50,[30],3.99 µM
same,TGI,[30],> 100 µM
same,GI50,[31],17.1 µM
same,TGI,[31],> 100 µM
same,GI50,[32],> 100 µM
same,TGI,[32],> 100 µM
same,GI50,[33],18.6 µM
same,TGI,[33],> 96.1 µM
same,GI50,[34],> 32.6 µM
same,TGI,[34],> 86.4 µM
same,GI50,[35],12 µM
same,TGI,[35],> 100 µM
same,GI50,[36],32.4 µM
same,TGI,[36],> 100 µM
same,GI50,[37],> 24.7 µM
same,TGI,[37],> 75.5 µM
same,GI50,[38],9.12 µM
same,TGI,[38],> 95 µM
same,GI50,[39],13.5 µM
same,TGI,[39],> 100 µM
same,GI50,[40],6.24 µM
same,TGI,[40],> 100 µM
same,GI50,[41],> 100 µM
same,TGI,[41],> 100 µM
same,GI50,[42],82.3 µM
same,TGI,[42],> 100 µM
same,GI50,[43],> 100 µM
same,TGI,[43],> 100 µM
same,GI50,[44],> 79.1 µM
same,TGI,[44],> 100 µM
same,GI50,[45],2.4 µM
same,TGI,[45],> 100 µM
same,GI50,[46],28.6 µM
same,TGI,[46],> 100 µM
same,GI50,[47],13.2 µM
same,TGI,[47],> 100 µM
same,GI50,[48],6.87 µM
same,TGI,[48],> 61.9 µM
same,GI50,[49],19.6 µM
same,TGI,[49],> 100 µM
same,GI50,[50],42.5 µM
same,TGI,[50],> 100 µM
same,GI50,[51],5.95 µM
same,TGI,[51],> 100 µM
same,GI50,[52],> 77.2 µM
same,TGI,[52],> 100 µM
same,GI50,[53],4.01 µM
same,TGI,[53],> 48.1 µM
same,GI50,[54],8.68 µM
same,TGI,[54],> 100 µM
same,GI50,[55],41.5 µM
same,TGI,[55],> 100 µM
same,GI50,[56],5.41 µM
same,TGI,[56],31.7 µM
same,GI50,[57],5.13 µM
same,TGI,[57],> 51.3 µM
same,GI50,[58],3.28 µM
same,TGI,[58],14 µM
CS(=O)(=O)Nc1cc(-c2ccc3ncnc(Nc4ccc5c(cnn5Cc5cccc(F)c5)c4)c3c2)cnc1Cl,GI50,[1],0.359 µM
same,TGI,[1],2.48 µM
same,GI50,[2],1.04 µM
same,TGI,[2],3.96 µM
same,GI50,[3],0.316 µM
same,TGI,[3],1.86 µM
same,GI50,[4],0.301 µM
same,TGI,[4],> 100 µM
same,GI50,[5],0.507 µM
same,TGI,[5],> 100 µM
same,GI50,[6],0.586 µM
same,TGI,[6],13.2 µM
same,GI50,[7],0.597 µM
same,TGI,[7],5.42 µM
same,GI50,[8],0.318 µM
same,TGI,[8],3.38 µM
same,GI50,[9],0.256 µM
same,TGI,[9],2.07 µM
same,GI50,[10],0.829 µM
same,TGI,[10],2.55 µM
same,GI50,[11],0.421 µM
same,TGI,[11],18.9 µM
same,GI50,[12],0.0717 µM
same,TGI,[12],0.535 µM
same,GI50,[13],1.11 µM
same,TGI,[13],8.01 µM
same,GI50,[14],0.227 µM
same,TGI,[14],1.05 µM
same,GI50,[15],0.283 µM
same,TGI,[15],1.98 µM
same,GI50,[16],0.201 µM
same,TGI,[16],1.65 µM
same,GI50,[17],0.648 µM
same,TGI,[17],6.28 µM
same,GI50,[18],0.324 µM
same,TGI,[18],1.69 µM
same,GI50,[19],0.812 µM
same,TGI,[19],4.47 µM
same,GI50,[20],1.14 µM
same,TGI,[20],4.25 µM
same,GI50,[21],1.57 µM
same,TGI,[21],> 100 µM
same,GI50,[22],0.294 µM
same,TGI,[22],1.45 µM
same,GI50,[23],1.38 µM
same,TGI,[23],6.51 µM
same,GI50,[24],0.277 µM
same,TGI,[24],2.19 µM
same,GI50,[25],0.396 µM
same,TGI,[25],2.05 µM
same,GI50,[26],0.397 µM
same,TGI,[26],1.44 µM
same,GI50,[27],0.275 µM
same,TGI,[27],1.21 µM
same,GI50,[28],5.8 µM
same,TGI,[28],> 78.4 µM
same,GI50,[29],0.361 µM
same,TGI,[29],1.75 µM
same,GI50,[30],0.811 µM
same,TGI,[30],3 µM
same,GI50,[31],0.17 µM
same,TGI,[31],0.733 µM
same,GI50,[32],0.759 µM
same,TGI,[32],2.96 µM
same,GI50,[33],0.201 µM
same,TGI,[33],1.3 µM
same,GI50,[34],0.0562 µM
same,TGI,[34],0.46 µM
same,GI50,[35],1.56 µM
same,TGI,[35],5.79 µM
same,GI50,[36],0.913 µM
same,TGI,[36],> 100 µM
same,GI50,[37],0.0321 µM
same,TGI,[37],0.457 µM
same,GI50,[38],0.381 µM
same,TGI,[38],2.74 µM
same,GI50,[39],0.101 µM
same,TGI,[39],0.922 µM
same,GI50,[40],0.745 µM
same,TGI,[40],2.5 µM
same,GI50,[41],0.479 µM
same,TGI,[41],4.7 µM
same,GI50,[42],0.293 µM
same,TGI,[42],1.89 µM
same,GI50,[43],0.608 µM
same,TGI,[43],7.3 µM
same,GI50,[44],1.11 µM
same,TGI,[44],4.84 µM
same,GI50,[45],0.929 µM
same,TGI,[45],9.45 µM
same,GI50,[46],0.376 µM
same,TGI,[46],2.27 µM
same,GI50,[47],0.575 µM
same,TGI,[47],3.65 µM
same,GI50,[48],0.4 µM
same,TGI,[48],1.9 µM
same,GI50,[49],0.676 µM
same,TGI,[49],6.61 µM
same,GI50,[50],0.628 µM
same,TGI,[50],2.3 µM
same,GI50,[51],0.419 µM
same,TGI,[51],3.17 µM
same,GI50,[52],0.111 µM
same,TGI,[52],0.878 µM
same,GI50,[53],0.756 µM
same,TGI,[53],11.2 µM
same,GI50,[54],0.48 µM
same,TGI,[54],1.84 µM
same,GI50,[55],0.411 µM
same,TGI,[55],2.6 µM
same,GI50,[56],0.456 µM
same,TGI,[56],5.41 µM
same,GI50,[57],0.452 µM
same,TGI,[57],7.95 µM
same,GI50,[58],1.63 µM
same,TGI,[58],15.4 µM
